Data set [1] deals with Voltage-gated inwardly rectifying potassium channel KCNH2 (Homo sapiens, UniProt Q12809). Conditions: Potency.
The next data set deals with T1, Cytochrome P450 1A2 (Homo sapiens, UniProt P05177).
T1 sequence (P05177 whole entry): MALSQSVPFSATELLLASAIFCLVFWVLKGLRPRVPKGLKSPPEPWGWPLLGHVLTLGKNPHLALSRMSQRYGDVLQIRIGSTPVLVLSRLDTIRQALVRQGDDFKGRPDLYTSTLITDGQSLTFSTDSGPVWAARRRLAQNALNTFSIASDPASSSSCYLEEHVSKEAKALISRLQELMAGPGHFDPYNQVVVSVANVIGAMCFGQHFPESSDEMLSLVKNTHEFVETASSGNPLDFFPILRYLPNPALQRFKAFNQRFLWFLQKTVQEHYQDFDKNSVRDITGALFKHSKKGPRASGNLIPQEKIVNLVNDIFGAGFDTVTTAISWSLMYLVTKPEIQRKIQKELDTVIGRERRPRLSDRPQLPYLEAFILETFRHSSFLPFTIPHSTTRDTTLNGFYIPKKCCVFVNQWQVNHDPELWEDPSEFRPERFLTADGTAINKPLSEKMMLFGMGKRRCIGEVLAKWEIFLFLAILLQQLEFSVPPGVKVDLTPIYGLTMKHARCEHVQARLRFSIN

In data set [2] the target is T2, Type-1 angiotensin II receptor (Homo sapiens, UniProt P30556).
T2 sequence (P30556 whole entry): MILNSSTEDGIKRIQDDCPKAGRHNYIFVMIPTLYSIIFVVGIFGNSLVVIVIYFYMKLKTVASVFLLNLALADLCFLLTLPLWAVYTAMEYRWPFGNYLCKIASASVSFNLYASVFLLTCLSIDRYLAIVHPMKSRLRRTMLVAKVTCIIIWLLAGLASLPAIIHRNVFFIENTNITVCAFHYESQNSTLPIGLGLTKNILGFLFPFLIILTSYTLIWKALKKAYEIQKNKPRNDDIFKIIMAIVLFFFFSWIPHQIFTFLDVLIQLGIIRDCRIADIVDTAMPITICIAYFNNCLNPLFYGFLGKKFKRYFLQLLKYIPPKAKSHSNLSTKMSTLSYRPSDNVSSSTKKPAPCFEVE
As to the kind of experiment: AT1 receptor antagonists, dose response, selectivity assay for APJ receptor antagonist project, cell-based, uHTS hits (AID 463214).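 Further: antagonist potency against angiotensin II stimulated AT1 response.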 Format: functional.

The next data set concerns the target Beta-galactosidase (Escherichia coli, UniProt Q8VNN2). The data set is described as follows: PubChem AID 485352. Format: functional.
The target of data set [3] is CAAX prenyl protease 2 (Homo sapiens, UniProt Q9Y256). The data set is described as follows: human Rce1 protease inhibitors, dose response, biochemical, yeast membranes, quenched-peptide fluorescence, cherry-pick (AID 588849).
The next data set concerns the target Trypsin (Sus scrofa, UniProt P00761). The data set is described as follows: porcine trypsin inhibitors, dose response, selectivity assay for Rce1 protease inhibitor project, biochemical, quenched peptide fluorescence, cherry-pick (AID 488789).
The target in another data set is Cytochrome P450 2C9 (Homo sapiens, UniProt P11712).
The target of data set [4] is T3, Nuclear receptor subfamily 0 group B member 1 (Homo sapiens, UniProt P51843).
T3 sequence (P51843 whole entry): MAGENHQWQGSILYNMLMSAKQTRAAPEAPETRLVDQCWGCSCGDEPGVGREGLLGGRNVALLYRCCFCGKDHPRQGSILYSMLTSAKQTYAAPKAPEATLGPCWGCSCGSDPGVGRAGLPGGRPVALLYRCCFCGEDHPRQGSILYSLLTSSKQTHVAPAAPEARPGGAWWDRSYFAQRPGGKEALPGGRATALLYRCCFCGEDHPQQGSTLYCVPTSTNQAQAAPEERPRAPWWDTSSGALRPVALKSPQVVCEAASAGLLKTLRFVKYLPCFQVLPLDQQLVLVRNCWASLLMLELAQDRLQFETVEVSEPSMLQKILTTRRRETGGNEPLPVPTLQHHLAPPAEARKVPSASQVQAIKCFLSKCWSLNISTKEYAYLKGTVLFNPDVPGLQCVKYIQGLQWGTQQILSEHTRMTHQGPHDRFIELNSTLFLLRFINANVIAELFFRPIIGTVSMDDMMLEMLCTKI
As to the kind of experiment: Luminescence-based cell-based high throughput dose response assay for inhibitors of the orphan nuclear receptor subfamily 0, group B, member 1 (DAX1; NR0B1). [Related pubchem assays (depositor defined):AID504766, AID504790]. It is filed as functional.

In another data set the test system is HEK293. The data set is described as follows: cells. Format: functional, cell-based. Conditions: Homo sapiens.
The target in data set [5] is Oxysterols receptor LXR-beta (Homo sapiens, UniProt P55055). It is filed as functional, cell-based.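 Further: Cell-based luminescence dose-response assay of agonist activity at LXR, run as a confirmatory counterscreen to a daf-12 agonist screen; HEK293 cells with Gal4-LXR fusion and GAL4-driven luciferase reporter; agonist potency from rising luciferase signal of a Gal4-LXR reporter.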
Data set [6] deals with CAAX prenyl protease 2 (Saccharomyces cerevisiae S288c, UniProt Q03530). It is filed as biochemical.
Data set [7] is described as follows: NIH-3T3 fibroblast cytotoxicity, dose response, cytotoxicity control, cell-based, fluorescence, Alamar Blue, secondary assay (AID 2327).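 Further: NIH-3T3 mouse fibroblasts cultured with fluconazole at 8 µg/mL.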 It is filed as functional.
For data set [8], the target named is ATP-dependent molecular chaperone HSP82 (Candida albicans (strain WO-1) (Yeast), UniProt C4YTQ8). The data set is described as follows: loss of DOC-induced GRE-beta-galactosidase reporter signal, dose response, Hsp90 inhibitor project, S. cerevisiae, luminescence (AID 2400).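 Further: beta-galactosidase luminescence from glucocorticoid response element reporter as proxy for Hsp90 function; inhibitor potency where signal loss means Hsp90 inhibition.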 It is filed as functional, cell-based.
The target in data set [9] is Serine/threonine-protein phosphatase (Candida dubliniensis (strain CD36 / CBS 7987 / NCPF 3949 / NRRLY-17841) (Yeast), UniProt B9W6M3). As to the kind of experiment: calcineurin pathway inhibitors in yeast reporter, dose response, S. cerevisiae, CDRE-lacZ, luminescence, secondary (AID 2388).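 Further: yeast reporter cells carrying a calcineurin-responsive lacZ construct stimulated with calcium chloride; luminescent beta-galactosidase reporter signal in whole cells rather than isolated phosphatase activity; potency for inhibition where a drop in reporter signal means calcineurin blockade.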 Format: functional, cell-based.
The next data set addresses T4, Streptokinase A (Streptococcus pyogenes serotype M1, UniProt P10520).
T4 sequence (P10520 whole entry): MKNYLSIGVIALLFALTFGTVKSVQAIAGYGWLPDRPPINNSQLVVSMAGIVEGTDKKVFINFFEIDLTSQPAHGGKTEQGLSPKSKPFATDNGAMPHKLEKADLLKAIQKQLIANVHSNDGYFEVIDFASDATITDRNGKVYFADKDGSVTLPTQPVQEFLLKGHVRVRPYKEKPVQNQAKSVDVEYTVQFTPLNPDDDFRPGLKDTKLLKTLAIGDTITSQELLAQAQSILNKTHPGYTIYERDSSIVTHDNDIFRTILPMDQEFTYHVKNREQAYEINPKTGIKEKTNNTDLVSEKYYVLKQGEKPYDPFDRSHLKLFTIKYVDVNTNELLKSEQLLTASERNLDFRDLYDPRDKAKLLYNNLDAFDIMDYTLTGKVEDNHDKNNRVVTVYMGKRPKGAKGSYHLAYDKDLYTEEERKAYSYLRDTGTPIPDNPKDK
As to the kind of experiment: S. pyogenes streptokinase expression inhibitors, potency, dose response, plasminogen activation absorbance, OD405 (AID 1914).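 Further: secreted streptokinase activity via plasminogen activation per viability signal from cell pellet.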 Format: functional, Streptococcus pyogenes M1 GAS.

A short description of data set [10]: inhibitors of intracellular T. cruzi replication, confirmation, NIH3T3 host cells, beta-gal luminescence (AID 2044).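 Further: intracellular parasites grown in NIH/3T3 mouse fibroblasts as host cells; luminescent beta-galactosidase reporter signal from transgenic T. cruzi replicating inside host cells; inhibitors lower the luminescence signal.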 It is filed as functional, cell-based.
Data set [11] in a line: cytotoxicity toward NIH3T3 fibroblasts, dose response, counter-screen, cell-based, ATP luminescence, mouse fibroblasts (AID 2010).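 Further: cells exposed to compound for about 90 hours before reading.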 It is filed as functional. (Counterscreens check selectivity or assay interference.)
Data set [12] deals with Streptococcus sp. 'group A'. As to the kind of experiment: growth inhibition of control SK(-) GAS strain, dose response, counter-screen for streptokinase expression inhibitor project, luminescence, kanamycin, BacTiterGlo, confirmation (AID 1900). Format: functional, organism-based.
The test system of the next data set is Streptococcus. As to the kind of experiment: Group A Streptococcus viability loss, dose response, counter-screen for streptokinase expression inhibitor project, luminescence, BacTiterGlo (AID 1915).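 Further: potency for reduction of bacterial viability or growth.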 It is filed as functional, organism-based.
A further data set concerns INS1. As to the kind of experiment: beta cell apoptosis inhibitors, cytokine rescue, dose response, luminescence, retest (AID 449756).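 Further: cell death triggered by IL-1 beta plus TNF-alpha plus IFN-gamma mixture; protective hits raise ATP signal compared with cytokine alone wells.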 Conditions: Rattus norvegicus. Format: functional, cell-based.
A short description of data set [13]: C. albicans growth with fluconazole, confirmation, fluorescence, retest (AID 2467). Format: functional, cell-based.

A word on the AC50: it is the concentration at which the activity in the assay is half-maximal. The IC50 is the concentration at which inhibition is half-maximal. Broadly, the EC50 is the concentration that produces a half-maximal response.

Calls of active or inactive are those of the source.

Sequence of Beta-galactosidase (Q8VNN2 whole entry): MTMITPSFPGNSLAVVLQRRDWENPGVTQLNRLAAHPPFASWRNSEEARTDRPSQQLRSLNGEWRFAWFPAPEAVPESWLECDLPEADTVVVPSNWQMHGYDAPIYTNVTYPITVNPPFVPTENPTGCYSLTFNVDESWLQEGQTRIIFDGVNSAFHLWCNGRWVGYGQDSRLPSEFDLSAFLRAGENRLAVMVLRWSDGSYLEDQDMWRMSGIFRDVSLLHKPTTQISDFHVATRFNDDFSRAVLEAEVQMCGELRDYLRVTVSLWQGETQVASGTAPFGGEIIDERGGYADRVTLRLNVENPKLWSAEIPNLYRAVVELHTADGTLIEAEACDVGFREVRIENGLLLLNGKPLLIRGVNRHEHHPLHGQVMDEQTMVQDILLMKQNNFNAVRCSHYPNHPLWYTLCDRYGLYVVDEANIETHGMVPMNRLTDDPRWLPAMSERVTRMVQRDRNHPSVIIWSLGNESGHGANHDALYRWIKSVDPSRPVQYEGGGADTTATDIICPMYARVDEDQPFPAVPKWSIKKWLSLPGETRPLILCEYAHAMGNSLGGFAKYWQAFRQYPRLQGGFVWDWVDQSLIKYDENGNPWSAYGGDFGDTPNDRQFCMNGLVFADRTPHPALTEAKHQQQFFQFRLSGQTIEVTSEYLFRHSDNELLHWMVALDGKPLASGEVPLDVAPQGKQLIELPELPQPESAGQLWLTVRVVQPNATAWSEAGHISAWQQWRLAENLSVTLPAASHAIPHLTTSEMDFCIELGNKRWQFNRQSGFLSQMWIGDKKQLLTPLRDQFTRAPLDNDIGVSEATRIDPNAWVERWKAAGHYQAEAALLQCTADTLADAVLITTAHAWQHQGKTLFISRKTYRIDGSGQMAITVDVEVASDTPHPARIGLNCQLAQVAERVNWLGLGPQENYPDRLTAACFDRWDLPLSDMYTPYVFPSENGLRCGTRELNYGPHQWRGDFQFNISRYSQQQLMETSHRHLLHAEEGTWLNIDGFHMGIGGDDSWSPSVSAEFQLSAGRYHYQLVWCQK
Sequence of CAAX prenyl protease 2 (Homo sapiens, UniProt Q9Y256) (Q9Y256 whole entry): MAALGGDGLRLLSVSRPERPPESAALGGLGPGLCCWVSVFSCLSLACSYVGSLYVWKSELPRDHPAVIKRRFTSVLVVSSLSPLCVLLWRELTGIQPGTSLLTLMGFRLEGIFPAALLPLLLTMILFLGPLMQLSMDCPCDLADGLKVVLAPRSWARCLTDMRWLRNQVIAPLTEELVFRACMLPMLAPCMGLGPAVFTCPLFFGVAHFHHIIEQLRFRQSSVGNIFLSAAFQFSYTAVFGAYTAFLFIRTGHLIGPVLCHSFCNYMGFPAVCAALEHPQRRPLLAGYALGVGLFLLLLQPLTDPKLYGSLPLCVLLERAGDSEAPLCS
Sequence of Voltage-gated inwardly rectifying potassium channel KCNH2 (Q12809 whole entry): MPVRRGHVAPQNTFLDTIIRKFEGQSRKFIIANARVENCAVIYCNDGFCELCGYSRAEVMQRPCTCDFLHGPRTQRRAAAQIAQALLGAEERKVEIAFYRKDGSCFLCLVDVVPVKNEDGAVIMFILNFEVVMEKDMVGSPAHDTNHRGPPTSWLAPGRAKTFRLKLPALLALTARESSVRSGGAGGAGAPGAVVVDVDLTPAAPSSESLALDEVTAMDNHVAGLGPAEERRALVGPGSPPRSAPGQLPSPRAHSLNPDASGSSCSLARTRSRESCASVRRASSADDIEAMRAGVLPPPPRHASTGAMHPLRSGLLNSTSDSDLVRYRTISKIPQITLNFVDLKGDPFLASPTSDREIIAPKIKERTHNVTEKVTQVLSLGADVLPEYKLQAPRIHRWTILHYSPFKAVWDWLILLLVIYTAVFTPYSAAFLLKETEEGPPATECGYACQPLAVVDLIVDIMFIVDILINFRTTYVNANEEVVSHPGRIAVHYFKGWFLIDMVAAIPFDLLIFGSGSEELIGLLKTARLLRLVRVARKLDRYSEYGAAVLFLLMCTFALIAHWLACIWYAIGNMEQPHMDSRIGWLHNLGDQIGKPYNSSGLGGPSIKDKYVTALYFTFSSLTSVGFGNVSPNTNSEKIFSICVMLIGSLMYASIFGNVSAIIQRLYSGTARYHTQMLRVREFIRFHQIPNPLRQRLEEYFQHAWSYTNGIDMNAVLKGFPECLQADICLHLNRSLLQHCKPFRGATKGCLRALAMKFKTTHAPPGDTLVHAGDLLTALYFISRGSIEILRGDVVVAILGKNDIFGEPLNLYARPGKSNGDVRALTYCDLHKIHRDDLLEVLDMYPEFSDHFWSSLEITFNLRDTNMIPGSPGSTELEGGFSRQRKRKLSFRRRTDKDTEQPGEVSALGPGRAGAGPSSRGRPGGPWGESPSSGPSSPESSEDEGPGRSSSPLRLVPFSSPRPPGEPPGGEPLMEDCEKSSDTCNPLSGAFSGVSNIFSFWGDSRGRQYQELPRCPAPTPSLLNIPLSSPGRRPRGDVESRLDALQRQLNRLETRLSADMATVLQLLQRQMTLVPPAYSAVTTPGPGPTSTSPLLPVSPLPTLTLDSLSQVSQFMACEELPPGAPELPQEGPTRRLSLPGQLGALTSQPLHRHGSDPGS
Sequence of Oxysterols receptor LXR-beta (P55055 whole entry, the tested form may be a part): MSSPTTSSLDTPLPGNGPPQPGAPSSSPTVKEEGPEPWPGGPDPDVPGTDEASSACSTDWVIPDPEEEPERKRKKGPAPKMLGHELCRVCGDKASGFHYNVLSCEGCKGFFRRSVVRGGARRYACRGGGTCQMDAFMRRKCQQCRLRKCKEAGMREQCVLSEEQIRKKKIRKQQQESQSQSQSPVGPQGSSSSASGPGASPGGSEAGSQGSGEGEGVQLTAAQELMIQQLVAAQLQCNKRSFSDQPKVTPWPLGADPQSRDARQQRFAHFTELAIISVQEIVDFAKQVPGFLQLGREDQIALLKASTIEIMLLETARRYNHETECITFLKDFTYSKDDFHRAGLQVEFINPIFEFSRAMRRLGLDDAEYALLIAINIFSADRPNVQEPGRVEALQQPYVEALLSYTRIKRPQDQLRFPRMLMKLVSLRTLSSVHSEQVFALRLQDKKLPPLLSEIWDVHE
Sequence of Trypsin (P00761 whole entry): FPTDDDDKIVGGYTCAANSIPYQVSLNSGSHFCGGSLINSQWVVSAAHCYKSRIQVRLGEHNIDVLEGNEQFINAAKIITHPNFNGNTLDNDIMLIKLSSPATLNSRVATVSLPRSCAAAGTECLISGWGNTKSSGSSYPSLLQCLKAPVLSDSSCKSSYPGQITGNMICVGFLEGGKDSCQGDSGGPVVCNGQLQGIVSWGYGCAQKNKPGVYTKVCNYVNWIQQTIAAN
Sequence of Cytochrome P450 2C9 (P11712 whole entry): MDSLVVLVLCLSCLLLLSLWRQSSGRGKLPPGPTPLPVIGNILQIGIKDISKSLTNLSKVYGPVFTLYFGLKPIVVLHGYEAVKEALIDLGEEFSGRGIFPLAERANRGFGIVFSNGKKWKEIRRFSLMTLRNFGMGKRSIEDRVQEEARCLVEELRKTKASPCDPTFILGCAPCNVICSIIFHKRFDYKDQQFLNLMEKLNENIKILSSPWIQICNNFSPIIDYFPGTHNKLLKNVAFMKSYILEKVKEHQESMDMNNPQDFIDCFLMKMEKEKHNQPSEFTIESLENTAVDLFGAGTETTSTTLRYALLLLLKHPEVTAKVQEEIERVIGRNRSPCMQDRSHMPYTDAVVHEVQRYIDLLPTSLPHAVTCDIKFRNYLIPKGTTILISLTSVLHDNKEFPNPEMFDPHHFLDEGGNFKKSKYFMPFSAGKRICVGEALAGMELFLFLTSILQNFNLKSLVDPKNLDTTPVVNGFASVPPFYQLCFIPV
Sequence of CAAX prenyl protease 2 (Saccharomyces cerevisiae S288c, UniProt Q03530) (Q03530 whole entry): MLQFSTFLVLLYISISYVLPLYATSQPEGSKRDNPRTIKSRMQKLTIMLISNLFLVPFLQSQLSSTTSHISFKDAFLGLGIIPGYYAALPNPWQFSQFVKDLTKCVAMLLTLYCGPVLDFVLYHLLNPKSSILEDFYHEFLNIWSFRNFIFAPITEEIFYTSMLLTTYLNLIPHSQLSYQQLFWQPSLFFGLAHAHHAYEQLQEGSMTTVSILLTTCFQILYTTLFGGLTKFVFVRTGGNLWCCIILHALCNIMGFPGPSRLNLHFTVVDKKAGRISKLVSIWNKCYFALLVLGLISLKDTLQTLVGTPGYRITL
Sequence of Serine/threonine-protein phosphatase (B9W6M3 whole entry): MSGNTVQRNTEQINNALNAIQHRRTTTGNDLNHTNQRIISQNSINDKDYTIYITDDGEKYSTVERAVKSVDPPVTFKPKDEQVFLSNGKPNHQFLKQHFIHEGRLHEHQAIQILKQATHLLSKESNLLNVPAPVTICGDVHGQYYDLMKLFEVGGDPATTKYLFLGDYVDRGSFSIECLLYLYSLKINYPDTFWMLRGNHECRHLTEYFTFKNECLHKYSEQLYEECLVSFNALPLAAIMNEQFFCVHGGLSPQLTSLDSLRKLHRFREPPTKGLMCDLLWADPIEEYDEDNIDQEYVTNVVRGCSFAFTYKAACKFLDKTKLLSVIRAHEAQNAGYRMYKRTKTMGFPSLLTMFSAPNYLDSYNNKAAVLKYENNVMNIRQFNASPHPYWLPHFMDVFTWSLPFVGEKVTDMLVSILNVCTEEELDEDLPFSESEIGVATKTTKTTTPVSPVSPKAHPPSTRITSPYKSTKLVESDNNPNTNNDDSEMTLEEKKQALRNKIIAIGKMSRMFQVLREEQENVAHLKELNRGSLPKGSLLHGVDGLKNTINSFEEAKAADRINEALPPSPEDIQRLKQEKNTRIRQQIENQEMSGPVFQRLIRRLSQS

For the compound `CC(C)(C=O)Cc1cc(C(C)(C)C)c(O)c(C(C)(C)C)c1`, the AC50 in [1] was 35.5 µM (inconclusive).
Regarding `Cc1ccc(C(=O)COC(=O)CNC(=O)Cc2ccccc2)cc1[N+](=O)[O-]`, the AC50 at Cytochrome P450 1A2 is 25.1 µM (inconclusive). Besides, in data set [2], the IC50 was > 40 µM (not active). The EC50 on Beta-galactosidase is > 40 µM (inactive).
For the compound `O=C1CCCN1CC(O)CS(=O)(=O)c1ccccc1` (stereo not drawn), the AC50 is 17.7 µM (active) at CAAX prenyl protease 2 [3], 1.72 µM (active) on Trypsin and “inconclusive” on Cytochrome P450 2C9.
For the compound `Cc1nc2c(ncn2-c2ccccc2)c(=O)n1NC(=O)CN1CCCC1`, the IC50 (in [4]; in the data set with HEK293) was > 67.5 µM (inactive) each time.
Turning to `Oc1ccccc1-c1cc(-c2ccc(F)cc2)[nH]n1`, the EC50 (in “cells”; in data set [5]) was > 67.6 µM (inactive) in each case. Moreover, the IC50 (in [4]; with HEK293) was > 67.5 µM (inactive) in each case.
In the case of `Nc1nc(SCc2ccc([N+](=O)[O-])cc2)c2ncn([C@@H]3O[C@H](CO)[C@H](O)[C@H]3O)c2n1`, in data set [1], the AC50 is 20 µM (inconclusive).
For `COC(=O)c1ccc(NCC(=O)c2ccccc2)cc1`, the IC50 in data set [2] was 13.7 µM (active). Moreover, the EC50 at Beta-galactosidase was > 40 µM (inactive).
For the compound `Cc1nc(-c2ccc(Cl)cc2)sc1C1(C)CC(c2ccccc2Br)=NO1` (stereo not drawn), the AC50 at CAAX prenyl protease 2 [3] and on CAAX prenyl protease 2 [6] was > 100 µM (inactive) each time.
In the case of `Nc1nonc1-n1nnc(C(=O)N/N=C/c2cc(Br)ccc2O)c1CNc1ccccc1`, the EC50 was 43.8 µM (inconclusive) in [7]; 22.6 µM (active) in [8]; > 180 µM (inactive) in [9]; > 150 µM (not active) on Streptokinase A; 1.84 µM (active) in data set [10]; 5.03 µM (active) in data set [11]. The results for the EC50 (in data set [12]; in the data set on Streptococcus; in data set [13]) were 0.392 µM (active), 3.23 µM (active) and 0.178 µM (active), respectively. Besides, the AC50 with INS1 was 2.52 µM (active).

Source of the values: ChEMBL document CHEMBL1201862, “PubChem BioAssay data set” (2004).
